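Method: 48-hour compound exposure of cells in 96-well plates, five concentrations, linear interpolation of endpoints. The concentration for 50% growth inhibition is given as GI50.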 Calls of active or inactive are those of the source. Cut-off read from the data, not from the text of the source: active = GI50 up to about 1.1 µM and inactive = higher.
Assays:
Test in all cases: NCI-60 cell line screen, 48 h
MOLT-4 = tested on: MOLT-4
SW-620 = tested on: SW-620
786-0 = tested on: 786-0
SK-MEL-2 = tested on: SK-MEL-2
SK-MEL-5 = tested on: SK-MEL-5
U-251 = tested on: U-251
HOP-92 = tested on: HOP-92
HCT-15 = tested on: HCT-15
M14 = tested on: M14
HL-60 = tested on: HL-60
HOP-62 = tested on: HOP-62
COLO 205 = tested on: COLO 205
Malme-3M = tested on: Malme-3M
OVCAR-3 = tested on: OVCAR-3
RXF 393 = tested on: RXF 393
SNB-19 = tested on: SNB-19

Structure (SMILES)	GI50 (MOLT-4)	GI50 (SW-620)	GI50 (786-0)	GI50 (SK-MEL-2)	GI50 (SK-MEL-5)	GI50 (U-251)	GI50 (HOP-92)	GI50 (HCT-15) [µM]	GI50 (M14)	GI50 (HL-60)	GI50 (HOP-62)	GI50 (COLO 205)	GI50 (Malme-3M)	GI50 (OVCAR-3)	GI50 (RXF 393)	GI50 (SNB-19)
CCN1CCC(O)(c2ccccc2)C(C(=O)c2ccccc2)C1 (configuration not stated)	21.7 µM (inactive)	17.6 µM (inactive)	17.1 µM (inactive)	> 100 µM (inactive)	33.7 µM (inactive)	> 100 µM (inactive)	17.7 µM (inactive)	26.9	17.3 µM (inactive)	19.5 µM (inactive)	> 100 µM (inactive)	22.4 µM (inactive)	21.1 µM (inactive)	16.3 µM (inactive)	15.5 µM (inactive)	> 100 µM (inactive)
CN(C)/C(=N/C(=O)Nc1ccccc1)SCc1ccccc1	73.3 µM (inactive)	> 100 µM (inactive)	> 100 µM (inactive)	85.1 µM (inactive)	> 100 µM (inactive)	> 100 µM (inactive)		> 100	> 100 µM (inactive)	> 100 µM (inactive)	> 100 µM (inactive)	> 100 µM (inactive)	> 100 µM (inactive)	> 100 µM (inactive)	58.9 µM (inactive)	> 100 µM (inactive)
CC1=NN(C(=O)CC(=O)Nc2ccccc2F)C(=O)C1/N=N/c1ccccc1[N+](=O)[O-] (configuration not stated)	73.8 µM (inactive)	> 100 µM (inactive)	> 100 µM (inactive)	> 100 µM (inactive)	17.9 µM (inactive)	> 100 µM (inactive)		> 100	> 100 µM (inactive)		> 100 µM (inactive)	> 100 µM (inactive)	> 100 µM (inactive)	96.4 µM (inactive)	45.1 µM (inactive)	> 100 µM (inactive)
Cc1cc2c(=O)c(C)n[nH]c2c(C#N)c1C	> 100 µM (inactive)	> 100 µM (inactive)	> 100 µM (inactive)	> 10 µM (inactive)		> 100 µM (inactive)	29.4 µM (inactive)	> 100		> 100 µM (inactive)	> 100 µM (inactive)	> 100 µM (inactive)	> 100 µM (inactive)	> 100 µM (inactive)	> 100 µM (inactive)	> 100 µM (inactive)
C[C@H]1C[C@@H]2[C@H]([C@@H](O)C[C@@]3(C)[C@H]2CC[C@]3(O)C(=O)CO)[C@@]2(C)C=CC(=O)C=C12 [METHYLPREDNISOLONE]	> 100 µM (inactive)	> 100 µM (inactive)	> 100 µM (inactive)	> 100 µM (inactive)	> 100 µM (inactive)		> 100 µM (inactive)	> 100	> 100 µM (inactive)	> 100 µM (inactive)	> 100 µM (inactive)	> 100 µM (inactive)	> 100 µM (inactive)	> 100 µM (inactive)		
O=C1OC(c2ccccc2)=N/C1=C/N1CCCC1C(=O)O (configuration not stated)		> 100 µM (inactive)	> 100 µM (inactive)	> 100 µM (inactive)	> 100 µM (inactive)	> 100 µM (inactive)	> 100 µM (inactive)	> 100	> 100 µM (inactive)	> 100 µM (inactive)	> 100 µM (inactive)	> 100 µM (inactive)	> 100 µM (inactive)	> 100 µM (inactive)	> 100 µM (inactive)	> 100 µM (inactive)
CO[C@@H]1C=C[C@@]23c4cc5c(cc4CN(C[C@@H]2O)[C@H]3C1)OCO5 [(+)-HAEMANTHAMINE]	6.47 µM (inactive)	15.5 µM (inactive)	20.1 µM (inactive)	9.16 µM (inactive)	> 10 µM (inactive)	15 µM (inactive)	14.3 µM (inactive)	17.4	5.94 µM (inactive)	14 µM (inactive)			14.6 µM (inactive)	46.6 µM (inactive)	18.7 µM (inactive)	33.3 µM (inactive)
C=C1CN2CCc3c([nH]c4ccccc34)C2CC1CC(=O)N(C)C (configuration not stated)	> 309 µM (inactive)	> 309 µM (inactive)	> 309 µM (inactive)	> 309 µM (inactive)	> 309 µM (inactive)	> 309 µM (inactive)	126 µM (inactive)	> 309		> 309 µM (inactive)	> 309 µM (inactive)	> 309 µM (inactive)	> 309 µM (inactive)	> 309 µM (inactive)	> 309 µM (inactive)	> 309 µM (inactive)
O=C(O)CC12C3C4C5C3C1C5C42 (configuration not stated)	> 100 µM (inactive)	> 100 µM (inactive)	> 100 µM (inactive)	> 100 µM (inactive)	> 100 µM (inactive)	> 100 µM (inactive)		> 100	> 100 µM (inactive)	> 100 µM (inactive)	> 100 µM (inactive)	> 100 µM (inactive)	> 100 µM (inactive)	> 100 µM (inactive)		> 100 µM (inactive)
NCC1(N2CCOCC2)C2CCCC21CNc1ccccc1 (configuration not stated)	92.3 µM (inactive)	> 100 µM (inactive)	> 100 µM (inactive)		> 100 µM (inactive)	> 100 µM (inactive)	41.9 µM (inactive)		> 100 µM (inactive)	53.8 µM (inactive)	> 100 µM (inactive)	> 100 µM (inactive)	> 100 µM (inactive)	> 100 µM (inactive)	56.4 µM (inactive)	> 100 µM (inactive)
S=c1sc2sc(=S)sc2s1	28.8 µM (inactive)	> 100 µM (inactive)	68.4 µM (inactive)	> 100 µM (inactive)	> 100 µM (inactive)	21 µM (inactive)	57.9 µM (inactive)	26.1	21.1 µM (inactive)	5.92 µM (inactive)	> 100 µM (inactive)	84.9 µM (inactive)	> 100 µM (inactive)		35.6 µM (inactive)	> 100 µM (inactive)
CCN(CC)c1c(C)nnn1C1OC(COC(C)=O)C(OC(C)=O)C(OC(C)=O)C1OC(C)=O (configuration not stated)	> 100 µM (inactive)	15 µM (inactive)	> 100 µM (inactive)		> 100 µM (inactive)	> 100 µM (inactive)	70.8 µM (inactive)	38.6	> 100 µM (inactive)	> 100 µM (inactive)	> 100 µM (inactive)	> 100 µM (inactive)	> 100 µM (inactive)	> 100 µM (inactive)		> 100 µM (inactive)
CSC1=Nc2ccccc2N=C(c2ccc(Cl)cc2)C1	21.7 µM (inactive)	39.1 µM (inactive)	30.3 µM (inactive)	25.4 µM (inactive)	24.2 µM (inactive)	33.4 µM (inactive)		26.9	36.1 µM (inactive)	35.3 µM (inactive)	> 100 µM (inactive)	59.6 µM (inactive)	35.2 µM (inactive)	33.3 µM (inactive)	20.4 µM (inactive)	> 100 µM (inactive)
Cn1cc(C(=O)c2ccccc2)c2ccccc2c1=O	> 100 µM (inactive)	> 100 µM (inactive)	> 100 µM (inactive)	> 100 µM (inactive)	> 100 µM (inactive)		62.8 µM (inactive)	> 100	> 100 µM (inactive)	24.8 µM (inactive)	18.8 µM (inactive)	> 100 µM (inactive)	> 100 µM (inactive)	> 100 µM (inactive)	> 100 µM (inactive)	
